The values below come from paper PMC3093256, “Synthesis of 1-Substituted Carbazolyl-1,2,3,4-tetrahydro- and Carbazolyl-3,4-dihydro-β-carboline Analogs as Potential Antitumor Agents” (Marine Drugs, 2011).

In brackets after ≈: the same amount, converted by molar mass.

In data set [1] the test system is KB (human mouth epidermoid carcinoma). Nature of the data set: Cytotoxicity assay, KB cells. The class given is cell-based. The following applies: 72 h, 3 days incubation, by interpolation. How it is done: (§1) The cytotoxic activities of compounds against KB (human mouth epidermoid carcinoma), DLD (human colon adenocarcinoma), NCI-H661 (human lung large cell carcinoma), Hepa (human hepatoma), and HepG2/A2 (human hepatoblastoma) cells were assayed by the […] assay as previously described. The cells for assay were cultured in RPMI-1640 medium supplemented with […] in an incubator at 37 °C. The cytotoxicity assay depends on the binding of methylene blue to fixed monolayers of cells at pH 8.5, washing the monolayer, and releasing the dye by lowering the pH value. Samples and control standard drugs were prepared at a concentration of 1, 10, 40, and 100 μg/mL. After seeding 2880 cells/well in a 96-well microplate for 3 h, 20 μL of sample or standard agent was placed in each well and incubated at 37 °C for 3 days. After removing the medium from the microplates, the cells were fixed with 10% formaldehyde in 0.9% saline for 30 min, then dyed with 1% (w/v) methylene blue in 0.01 M borate-buffer (100 μL/well) for 30 min. The 96-well plate was dipped into a 0.01 M borate-buffer solution four times in order to remove the dye. Then, 100 μL/well of EtOH-0.1 M HCl (1:1) was added as a dye eluting solvent, and the absorbance was measured on a microtiter plate reader (Dynatech, MR 7000) at a wavelength of 650 nm. […] Doxorubicin was used as a standard compound.

Data set [2] relates to DLD (human colon adenocarcinoma). Nature of the data set: Cytotoxicity assay, DLD cells. Type of data set: cell-based. The following applies: Homo sapiens, 72 h, 3 days incubation, by interpolation. How it is done:
as §1

Data set [3] deals with NCI-H661 (human lung large cell carcinoma). The data set can be described thus: Cytotoxicity assay, NCI-H661 cells. The class given is cell-based. The following applies: 72 h, 3 days incubation, by interpolation. The method, then:
as §1

A further data set has as its system Hepa (human hepatoma). The data set can be described thus: Cytotoxicity assay, Hepa cells. Type of data set: cell-based. The following applies: 72 h, 3 days incubation, by interpolation. The method, then: as §1
The test system of data set [4] is HepG2/A2 (human hepatoma). Nature of the data set: Cytotoxicity assay, HepG2/A2 cells. Type of data set: cell-based. The following applies: Homo sapiens, 72 h; HepG2/A2 cells, 3 days incubation, by interpolation. The method, then: as §1
Data set [5] has as its target T1, human DNA topoisomerase I (Homo sapiens, UniProt P11387).
T1 construct: purchased TopoGen
T1 sequence (P11387 1-765): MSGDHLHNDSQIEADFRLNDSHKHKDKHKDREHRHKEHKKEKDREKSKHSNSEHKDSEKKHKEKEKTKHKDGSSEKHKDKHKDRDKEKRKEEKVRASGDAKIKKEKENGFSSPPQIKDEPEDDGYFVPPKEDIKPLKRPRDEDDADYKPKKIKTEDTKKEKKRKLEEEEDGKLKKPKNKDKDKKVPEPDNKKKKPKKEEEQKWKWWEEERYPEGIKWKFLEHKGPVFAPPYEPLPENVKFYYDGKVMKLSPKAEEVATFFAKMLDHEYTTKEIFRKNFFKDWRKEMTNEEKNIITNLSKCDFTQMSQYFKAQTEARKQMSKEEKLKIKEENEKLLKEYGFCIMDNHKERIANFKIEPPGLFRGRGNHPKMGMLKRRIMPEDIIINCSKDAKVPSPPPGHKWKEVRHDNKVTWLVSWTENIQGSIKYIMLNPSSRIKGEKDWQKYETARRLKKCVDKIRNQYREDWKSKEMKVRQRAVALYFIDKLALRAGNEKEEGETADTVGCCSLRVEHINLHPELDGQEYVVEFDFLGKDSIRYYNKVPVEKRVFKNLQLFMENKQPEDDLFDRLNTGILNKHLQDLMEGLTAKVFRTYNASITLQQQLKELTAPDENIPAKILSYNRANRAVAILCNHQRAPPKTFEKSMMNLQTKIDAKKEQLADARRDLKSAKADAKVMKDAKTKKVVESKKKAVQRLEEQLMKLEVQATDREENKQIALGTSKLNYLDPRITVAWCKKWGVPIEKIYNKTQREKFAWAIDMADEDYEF
Nature of the data set: Relaxation assay of topoisomerase I (supercoiled pBR322). Type of data set: biochemical. The following applies: five concentrations 5, 10, 25, 50 and 100 μg/mL; read-out: Inhibition of DNA topoisomerase I IC50 (converted). How it is done:
(§2) Topoisomerases I and II (topo I and II) assays were measured by assessing relaxation of supercoiled pBR322 plasmid DNA according to [24]. […] In summary, topo I (TopoGen) was mixed with the test sample and 10° volume of assay buffer (100 mM Tris-HCl, 10 mM EDTA, 1.5 M NACl, 1.0% BSA, […], and 50% glycerol), and then supercoiled DNA (pBR322) was added. In topo II assay, the mixture contained test sample and buffer including 50 mM Tris-HCl, 120 mM KCl, 10 mM MgCl2, 0.5 mM ATP, 0.5 mM dithiothreitol, 2 μg BSA, pBR322 plasmid DNA (0.25 μg), and 3U of topo II (TopoGen) in final volume of 20 μL. After incubation of topo I or topo II mixture for 30 min at 37 °C, 2 λ 10% SDS and 2.5 λ proteinase K were added for 1 h. The reaction mixtures were electrophoresed on a 2% agarose gel (50 V, 20 min; 100 V, 30 min; 110 V, 30 min) and stained with ethidium bromide. Finally, by a densitometer of ImageMaster® (Fujifilm thermal imaging system, FTI-500), the gels were directly scanned and the area representing supercoiled DNA was calculated.

Data set [6] deals with T2, human DNA topoisomerase II (Homo sapiens, UniProt P11388).
T2 construct: purchased TopoGen
T2 sequence (P11388 whole entry): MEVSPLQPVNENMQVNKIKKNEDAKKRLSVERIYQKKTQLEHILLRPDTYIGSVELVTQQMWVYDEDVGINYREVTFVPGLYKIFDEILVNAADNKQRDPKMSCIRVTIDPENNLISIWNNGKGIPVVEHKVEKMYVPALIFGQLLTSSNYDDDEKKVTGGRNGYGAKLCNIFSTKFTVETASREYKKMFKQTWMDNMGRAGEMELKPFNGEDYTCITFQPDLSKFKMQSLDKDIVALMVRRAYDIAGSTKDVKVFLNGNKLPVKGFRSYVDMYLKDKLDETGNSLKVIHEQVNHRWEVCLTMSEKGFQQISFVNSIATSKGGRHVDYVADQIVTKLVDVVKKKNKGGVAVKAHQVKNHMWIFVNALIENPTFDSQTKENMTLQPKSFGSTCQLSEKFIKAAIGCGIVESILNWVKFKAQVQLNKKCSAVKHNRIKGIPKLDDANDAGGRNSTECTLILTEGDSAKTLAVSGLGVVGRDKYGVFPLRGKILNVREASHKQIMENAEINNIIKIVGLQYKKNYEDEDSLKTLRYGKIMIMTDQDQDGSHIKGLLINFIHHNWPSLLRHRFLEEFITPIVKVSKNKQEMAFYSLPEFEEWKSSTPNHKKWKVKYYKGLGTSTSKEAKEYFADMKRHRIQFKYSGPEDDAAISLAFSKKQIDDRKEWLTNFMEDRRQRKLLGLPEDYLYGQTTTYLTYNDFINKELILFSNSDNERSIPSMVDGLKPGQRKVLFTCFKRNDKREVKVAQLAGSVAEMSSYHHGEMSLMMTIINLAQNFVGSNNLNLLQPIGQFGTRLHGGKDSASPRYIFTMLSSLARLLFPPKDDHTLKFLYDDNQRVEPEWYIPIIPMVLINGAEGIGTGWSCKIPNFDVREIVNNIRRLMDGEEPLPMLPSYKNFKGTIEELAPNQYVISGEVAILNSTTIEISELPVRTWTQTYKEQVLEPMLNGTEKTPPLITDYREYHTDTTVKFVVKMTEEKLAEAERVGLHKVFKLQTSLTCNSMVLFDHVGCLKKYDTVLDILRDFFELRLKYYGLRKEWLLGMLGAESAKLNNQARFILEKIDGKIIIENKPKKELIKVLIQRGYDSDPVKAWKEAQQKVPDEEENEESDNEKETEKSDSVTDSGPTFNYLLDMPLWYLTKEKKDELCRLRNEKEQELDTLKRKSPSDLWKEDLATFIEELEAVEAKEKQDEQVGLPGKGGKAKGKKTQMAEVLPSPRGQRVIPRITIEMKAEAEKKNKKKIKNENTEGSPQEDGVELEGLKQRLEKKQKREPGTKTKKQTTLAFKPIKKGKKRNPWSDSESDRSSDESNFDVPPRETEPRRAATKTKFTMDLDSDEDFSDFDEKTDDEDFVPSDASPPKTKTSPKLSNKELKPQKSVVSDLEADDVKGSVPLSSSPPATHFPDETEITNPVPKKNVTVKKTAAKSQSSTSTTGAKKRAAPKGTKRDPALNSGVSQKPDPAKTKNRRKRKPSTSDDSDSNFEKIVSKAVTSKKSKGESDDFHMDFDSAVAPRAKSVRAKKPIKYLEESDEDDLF
The data set can be described thus: Relaxation assay of topoisomerase II (supercoiled pBR322). The class given is biochemical. The following applies: for IC50: five concentrations 5, 10, 25, 50 and 100 μg/mL, read-out: Inhibition of DNA topoisomerase II IC50 (converted). The method, then:
as §2

The next data set concerns human tumor cell lines. The data set can be described thus: Cytotoxicity assay, tumor cell panel (cell line not specified). The class given is cell-based. The following applies: positive control. How it is done: The cytotoxic activities of compounds against KB (human mouth epidermoid carcinoma), DLD (human colon adenocarcinoma), NCI-H661 (human lung large cell carcinoma), Hepa (human hepatoma), and HepG2/A2 (human hepatoblastoma) cells were assayed by the MTT{3-(4,5-dimethylthiazole-2-yl)-2,5-diphenyltetrazolium bromide} colorimetric assay as previously described. The cells for assay were cultured in RPMI-1640 medium supplemented with […] in an incubator at 37 °C. The cytotoxicity assay depends on the binding of methylene blue to fixed monolayers of cells at pH 8.5, washing the monolayer, and releasing the dye by lowering the pH value. Samples and control standard drugs were prepared at a concentration of 1, 10, 40, and 100 μg/mL. After seeding 2880 cells/well in a 96-well microplate for 3 h, 20 μL of sample or standard agent was placed in each well and incubated at 37 °C for 3 days. After removing the medium from the microplates, the cells were fixed with 10% formaldehyde in 0.9% saline for 30 min, then dyed with 1% (w/v) methylene blue in 0.01 M borate-buffer (100 μL/well) for 30 min. The 96-well plate was dipped into a 0.01 M borate-buffer solution four times in order to remove the dye. Then, 100 μL/well of EtOH-0.1 M HCl (1:1) was added as a dye eluting solvent, and the absorbance was measured on a microtiter plate reader (Dynatech, MR 7000) at a wavelength of 650 nm. […]

`CCCCCCCCCCCCCCCCCCCCn1c2ccccc2c2cc(C3=NCCc4c3[nH]c3ccccc43)ccc21` [Compound 18, 1-(9′-Eicosyl-3′-carbazolyl)-3,4-dihydro-β-carboline]: the melting point is 91 to 93 °C. The same compound yielded an IC50 in [1] of over 20 µg/mL. For the same compound, the IC50 in data set [2] was over 20 µg/mL. In data set [3], this compound returned an IC50 of over 20 µg/mL. The same compound registered an IC50 in the data set with Hepa (human hepatoma) of over 20 µg/mL. The compound also returned a concentration for half-maximal inhibition (IC50) in data set [4] of over 60 µg/mL. The IC50 in data set [5] is over 162 µM. The “inhibition of DNA topoisomerase II (in words)” value in data set [6] (compared with etoposide) is “great activity”. Besides, the IC50 in data set [6] was 9.09 µM.

`CCCCCCCCCCn1c2ccccc2c2cc(C3=NCCc4c3[nH]c3ccccc43)ccc21` [Compound 14, 1-(9′-Decyl-3′-carbazolyl)-3,4-dihydro-β-carboline] returned a melting point of 78 to 80 °C. In data set [1], this compound came in with an IC50 of over 20 µg/mL. In data set [2], this compound had an IC50 of over 20 µg/mL. In data set [3], this compound returned an IC50 of over 20 µg/mL. The compound further displayed an IC50 in the data set on Hepa (human hepatoma) of over 20 µg/mL. Also, in data set [4], the IC50 was over 60 µg/mL. Further, in data set [5], the IC50 is over 210 µM. In addition, the IC50 in data set [6] is 39.9 µM.

In turn, `CCCCCCCCCCCCCCCCn1c2ccccc2c2cc(C3=NCCc4c3[nH]c3ccccc43)ccc21` [Compound 16, 1-(9′-Hexadecyl-3′-carbazolyl)-3,4-dihydro-β-carboline] registered a melting point of 90 to 92 °C. The compound also registered an IC50 in [1] of over 20 µg/mL. The IC50 in data set [2] is over 20 µg/mL. The IC50 in data set [3] was over 20 µg/mL. Besides, the 50% inhibitory concentration (IC50) in the data set on Hepa (human hepatoma) was over 20 µg/mL. In data set [4], this compound showed an IC50 of over 60 µg/mL. Also, the IC50 in [5] is over 179 µM. Moreover, in [6], the IC50 is over 179 µM.

Take `CCCCCCCCCCCCCCCCn1c2ccccc2c2cc(C3NCCc4c3[nH]c3ccccc43)ccc21` (stereo not drawn) [Compound 15, 1-(9′-Hexadecyl-3′-carbazolyl)-1,2,3,4-tetrahydro-β-carboline]: the melting point is 111 to 113 °C. Besides, the IC50 in data set [1] is over 20 µg/mL. In [2], the IC50 is over 20 µg/mL. This compound also registered an IC50 in [3] of over 20 µg/mL. Moreover, the IC50 with Hepa (human hepatoma) is over 20 µg/mL. Also, the IC50 in data set [4] is over 60 µg/mL. For the same compound, the IC50 in data set [5] was over 178 µM. In data set [6], the IC50 was over 178 µM.

`CCCCCCCCCCCCCCCCCCCCn1c2ccccc2c2cc(C3NCCc4c3[nH]c3ccccc43)ccc21` (stereo not drawn) [Compound 17, 1-(9′-Eicosyl-3′-carbazolyl)-1,2,3,4-tetrahydro-β-carboline]: the IC50 in [1] is over 20 µg/mL; in [2], over 20 µg/mL; in [3], over 20 µg/mL; in the data set with Hepa (human hepatoma) it was over 20 µg/mL; in data set [4] it was over 60 µg/mL; in data set [5], over 162 µM. Besides, in data set [6], the IC50 is over 162 µM.

For `COc1cccc2c1C(=O)c1c(O)c3c(c(O)c1C2=O)C[C@@](O)(C(=O)CO)C[C@@H]3O[C@H]1C[C@H](N)[C@H](O)[C@H](C)O1` [Doxorubicin], the IC50 with human tumor cell lines was found to be 0.1 µg/mL (≈ 0.184 µM).

For orientation: IC50 means the concentration at which inhibition is half-maximal. One may read the melting point as the temperature, or range, at which the solid turns liquid.
